From patent publication US11986540B2, “Compositions including pafolacianine for the identification of malignant lesions” (ON TARGET LABORATORIES, LLC., priority 2022, dated 2024)

Assays:
[1] = system: FR-positive KB cell tumor xenografts; test: Whole body imaging and tissue distribution, FR-positive KB tumor xenografts; assay type: in vivo, mice; conditions: compared with pafolacianine
Procedure: Whole body imaging and tissue distribution of pafolacianine and OTL0039 was performed in female nu/nu mice bearing FR-positive KB cell tumor xenografts. […] This observation was consistent with the lower binding affinity of the D-isomer for FR compared with the L-isomer. Tumor fluorescence was brighter in mice receiving pafolacianine compared with other folate-conjugated near infrared dyes such as LS288, IR800 and ZW800.
The optimal dose range for pafolacianine with respect to tumor-to-background ratio in FR-positive tumor-bearing mice was 1 to 30 nmol/mouse, with lower fluorescence intensity observed in tumors at a lower dose (0.3 nmol) and higher fluorescence intensity observed in other tissues at doses above 30 nmol. In a second experiment, pafolacianine whole body imaging and tissue distribution was examined again; however, this experiment was performed in female nu/nu mice bearing FR-negative A549 cell tumor xenografts.

[2] = system: cytochrome P450 (CYP) enzymes; test: Metabolism by CYP enzymes; assay type: in vitro ADME
[3] = Excretion after single IV infusion of radiolabeled pafolacianine sodium; assay type: in vivo; conditions: after approximately 3-5 weeks

SMILES | fluorescence signal intensity in tumors and kidneys [1] | metabolism by cytochrome P450 (CYP) enzymes [2] | dose recovered in feces [3] [%] | dose recovered in urine [3] [%] | dose recovered in urine and feces [3]
CC1(C)C(=CC=C2CCCC(C=CC3=[N+](CCCCS(=O)(=O)[O-])c4ccc(S(=O)(=O)O)cc4C3(C)C)=C2Oc2ccc(C[C@@H](NC(=O)c3ccc(NCc4cnc5nc(N)[nH]c(=O)c5n4)cc3)C(=O)O)cc2)N(CCCCS(=O)(=O)O)c2ccc(S(=O)(=O)O)cc21 [OTL0039, reference compound] | weaker fluorescence signal intensity than pafolacianine | – | – | – | –
CC1(C)C(/C=C/C2=C(Oc3ccc(C[C@H](NC(=O)c4ccc(NCc5cnc6nc(N)[nH]c(=O)c6n5)cc4)C(=O)[O-])cc3)C(=C/C=C3/N(CCCCS(=O)(=O)[O-])c4ccc(S(=O)(=O)[O-])cc4C3(C)C)/CCC2)=[N+](CCCCS(=O)(=O)[O-])c2ccc(S(=O)(=O)[O-])cc21.O.[Na+].[Na+].[Na+].[Na+] [pafolacianine sodium, (S)-2-(4-(((2-amino-4-oxo-3,4-dihydropteridin-6-yl)methyl)amino)benzamido)-3-(4-(((E)-2-((E)-2-(3,3-dimethyl-5-sulfonato-1-(4-sulfonatobutyl)-3H-indol-1-ium-2-yl)vinyl)-6-((E)-2-(3,3-dimethyl-5-sulfonato-1-(4-sulfonatobutyl)indolin-2-ylidene)ethylidene)cyclohex-1-en-1-1)oxy)phenyl)propanoate hydrate tetrasodium] | – | not metabolized | 15.8 | 19.1 | approximately 35%
